Measurements: ChEMBL document CHEMBL5143608, “Peptide-based long-acting co-agonists of GLP-1 and cholecystokinin 1 receptors as novel anti-diabesity agents” (Eur J Med Chem, 2022)
The source made the active and inactive calls. The rule behind the calls is not given here.

Assays:
[1] = AUC (0 to infinity) in Sprague-Dawley rat at 25 nmol/kg, sc by LC-MS/MS analysis; format: ADME, organism-based; set-up: time infinity, dose 25 nmol/kg, route sc; conditions: in vivo
[2] = Hepatotoxicity in DIO C57BL/6 mouse assessed as alanine aminotransferase level in plasma at 100 nmol/kg, sc administered once daily for 7 days; format: toxicity, organism-based; conditions: in vivo, 168 h, time 7 day
[3] = Renal toxicity in DIO C57BL/6 mouse assessed as blood urea nitrogen level at 100 nmol/kg, sc administered once daily for 7 days; format: organism-based; conditions: in vivo, 168 h, time 7 day
[4] = Pancreatic insult activity in DIO C57BL/6 mouse assessed as increase in lipase level in plasma at 100 nmol/kg, sc administered once daily for 7 days; format: toxicity, organism-based; conditions: in vivo, 168 h, time 7 day
Mus musculus [5] = test: Anti-diabesity activity against db/db mouse assessed as HbA1c level at 25 nmol/kg, sc administered every 2 days for 3 weeks; format: functional, organism-based; conditions: time 21.0 day
Mus musculus [6] = test: Anti-diabesity activity in DIO C57BL/6 mouse assessed as improvement in insulin sensitivity at 25 nmol/kg, sc administered every 2 days for 10 days by insulin tolerance test; format: functional, organism-based; conditions: time 10.0 day
Mus musculus [7] = test: Hypoglycemic activity in sc dosed non-fasted db/db mouse assessed as reduction in blood glucose level measured upto 48 hrs; format: functional, organism-based; conditions: dose 10-100 nmol/kg, DDE = dose-dependent effect
[8] = Cmax in Sprague-Dawley rat at 25 nmol/kg, sc by LC-MS/MS analysis; format: ADME, organism-based; set-up: dose 25 nmol/kg, route sc; conditions: in vivo
Mus musculus [9] = test: Hypoglycemic activity in db/db mouse assessed as reduction in glucose excursion at 25 nmol/kg, ip administered 30 min before oral glucose administration and measured upto 120 mins by OGTT; format: functional, organism-based
[10] = Renal toxicity in db/db mouse assessed as creatinine level in serum at 25 nmol/kg, sc administered every 2 days for 12 weeks; format: organism-based; conditions: in vivo, 2016 h
Mus musculus [11] = test: Anti-diabesity activity in DIO C57BL/6 mouse assessed as decrease in fasted blood glucose level at 100 nmol/kg, sc administered once daily for 7 days; format: functional, organism-based; conditions: time 7.0 day
Mus musculus [12] = test: Anti-diabesity activity against db/db mouse assessed as reduction in fasting blood glucose level at 25 nmol/kg, sc administered every 2 days for 6 weeks followed by saline treatment for 6 weeks and measured during first 6 weeks; format: functional, organism-based
Mus musculus [13] = test: Insulinotropic activity in db/db mouse assessed as elevation of plasma insulin level at 25 nmol/kg, ip administered 30 min before oral glucose administration and measured upto 60 mins by ELISA; format: functional, organism-based; conditions: time <= 90.0 min
[14] = Renal toxicity in db/db mouse assessed as creatinine level in serum at 100 nmol/kg, sc administered once daily for 7 days; format: organism-based; conditions: in vivo, 168 h, time 7 day
Mus musculus [15] = test: Anti-diabesity activity against db/db mouse assessed as improvement in glucose tolerance level at 25 nmol/kg, sc administered every 2 days for 6 weeks followed by saline treatment for 6 weeks and measured during second 6 weeks by OGTT; format: functional, organism-based
Mus musculus [16] = test: Anti-diabesity activity against db/db mouse assessed as reduction in fasted blood glucose level at 25 nmol/kg, sc administered every 2 days for 3 weeks; format: functional, organism-based; conditions: time 21.0 day
Mus musculus [17] = test: Anti-diabesity activity against DIO C57BL/6 mouse assessed as reduction in body weight at 25 nmol/kg, sc administered every 2 days for 3 weeks; format: functional; conditions: C57BL/6, 504 h, time 21 day
[18] = target: T1, CCK2R (gastrin/cholecystokinin type B receptor) (Homo sapiens, UniProt P32239); test: Agonist activity at human CCK2R expressed in HEK293 cells assessed as ERK1/2 phosphorylation incubated for 5 mins by AlphaScreen assay; format: functional, cell-based; conditions: human, HEK293 cells expressing human CCK2R
T1 sequence (P32239 whole entry): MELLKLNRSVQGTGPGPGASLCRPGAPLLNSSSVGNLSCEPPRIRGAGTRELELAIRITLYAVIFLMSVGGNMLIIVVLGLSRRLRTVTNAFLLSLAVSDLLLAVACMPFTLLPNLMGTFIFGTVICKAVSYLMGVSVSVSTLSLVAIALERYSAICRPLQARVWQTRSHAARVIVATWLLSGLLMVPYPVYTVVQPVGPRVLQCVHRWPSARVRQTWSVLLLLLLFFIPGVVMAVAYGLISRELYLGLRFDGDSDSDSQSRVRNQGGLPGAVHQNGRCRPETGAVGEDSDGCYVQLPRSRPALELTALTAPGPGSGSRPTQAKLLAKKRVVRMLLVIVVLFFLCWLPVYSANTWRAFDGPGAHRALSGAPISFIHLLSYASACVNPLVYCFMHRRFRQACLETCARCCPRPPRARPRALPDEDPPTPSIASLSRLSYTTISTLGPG

Mus musculus [19] = test: Anti-diabesity activity in DIO C57BL/6 mouse assessed as reduction in body weight at 100 nmol/kg, sc administered once daily for 7 days; format: functional; conditions: C57BL/6, 168 h, time 7 day
Mus musculus [20] = test: Anti-diabesity activity against db/db mouse assessed as reduction in cumulative food intake at 25 nmol/kg, sc administered every 2 days for 3 weeks; format: functional, organism-based; conditions: time 21.0 day
Mus musculus [21] = test: Anti-diabesity activity in DIO C57BL/6 mouse assessed as reduction in body weight at 25 nmol/kg, sc administered every 2 days for 10 days; format: functional; conditions: C57BL/6, 240 h, time 10 day
Mus musculus [22] = test: Anti-diabesity activity against db/db mouse assessed as reduction in fasting blood glucose level at 25 nmol/kg, sc administered every 2 days for 12 weeks; format: functional, organism-based
[23] = Hepatotoxicity in db/db mouse assessed as alanine aminotransferase level in plasma at 25 nmol/kg, sc administered every 2 days for 12 weeks; format: toxicity, organism-based; conditions: in vivo, 2016 h
[24] = Renal toxicity in DIO C57BL/6 mouse assessed as creatinine level in serum at 100 nmol/kg, sc administered once daily for 7 days; format: organism-based; conditions: in vivo, 168 h, time 7 day
[25] = Renal toxicity in DIO C57BL/6 mouse assessed as blood urea nitrogen level at 25 nmol/kg, sc administered every 2 days for 3 weeks; format: organism-based; conditions: in vivo, 504 h, time 21 day
Mus musculus [26] = test: Anti-diabesity activity against db/db mouse assessed as increase in islet area at 25 nmol/kg, sc administered every 2 days for 3 weeks by H and E staining based analysis; format: functional, organism-based; conditions: time 21.0 day
[27] = Pancreatic insult activity in DIO C57BL/6 mouse assessed as increase in amylase level in plasma at 100 nmol/kg, sc administered once daily for 7 days; format: toxicity, organism-based; conditions: in vivo, 168 h, time 7 day
[28] = Half life in Sprague-Dawley rat at 25 nmol/kg, sc by LC-MS/MS analysis; format: ADME, organism-based; conditions: in vivo
Mus musculus [29] = test: Anti-diabesity activity against DIO C57BL/6 mouse assessed as improvement in glucose tolerance at 25 nmol/kg, sc administered every 2 days for 3 weeks by OGTT; format: functional, organism-based; conditions: time 21.0 day
BRIN-BD11 = test: Insulinotropic activity in rat BRIN-BD11 cells assessed as increase in insulin secretion incubated for 20 mins by radioimmunoassay; format: functional, cell-based; conditions: DDE = dose-dependent effect
[30] = MRT in Sprague-Dawley rat at 25 nmol/kg, sc by LC-MS/MS analysis; format: ADME, organism-based; conditions: in vivo
Mus musculus [31] = test: Anti-diabesity activity in DIO C57BL/6 mouse assessed as reduction in body weight at 10 nmol/kg, sc administered every 2 days for 10 days; format: functional; conditions: C57BL/6, 240 h, time 10 day
[32] = Pancreatic insult activity in db/db mouse assessed as increase in amylase level in serum at 25 nmol/kg, sc administered every 2 days for 12 weeks; format: toxicity, organism-based; conditions: in vivo, 2016 h

Compound | AUC(0-inf) [1] [ng·h/mL] | Activity [2] | Activity [3] | Activity [4] | Activity (Mus musculus [5]) | Activity (Mus musculus [6]) | Activity (Mus musculus [7]) | Cmax [8] [ng/mL] | Activity (Mus musculus [9]) | Activity [10] | Activity (Mus musculus [11]) | Activity (Mus musculus [12]) | Activity (Mus musculus [13]) | Activity [14] | Activity (Mus musculus [15]) | Activity (Mus musculus [16]) | inhibition in vivo at 0.025 µmol/kg (Mus musculus [17]) [%] | EC50 at 5 min [18] [nM] | inhibition in vivo at 0.1 µmol/kg (Mus musculus [19]) [%] | Activity (Mus musculus [20]) | other results
CCCC[C@H](NC(=O)[C@H](Cc1ccc(CS(=O)(=O)O)cc1)NC(=O)[C@H](CC(=O)O)NC(=O)COCCOCCNC(=O)COCCOCCNC(=O)[C@H](CCCNC(=N)N)NC(=O)CNC(=O)[C@H](CCCCN)NC(=O)[C@@H](NC(=O)[C@H](CC(C)C)NC(=O)[C@H](Cc1c[nH]c2ccccc12)NC(=O)[C@H](C)NC(=O)[C@@H](NC(=O)[C@H](Cc1ccccc1)NC(=O)[C@H](CCC(=O)O)NC(=O)[C@H](CCCCNC(=O)COCCOCCNC(=O)COCCOCCNC(=O)CC[C@H](NC(=O)CCCCCCCCCCCCCCCCC(=O)O)C(=O)O)NC(=O)[C@H](C)NC(=O)[C@H](C)NC(=O)[C@H](CCC(N)=O)NC(=O)CNC(=O)[C@H](CCC(=O)O)NC(=O)[C@H](CC(C)C)NC(=O)[C@H](Cc1ccc(O)cc1)NC(=O)[C@H](CO)NC(=O)[C@H](CO)NC(=O)[C@@H](NC(=O)[C@H](CC(=O)O)NC(=O)[C@H](CO)NC(=O)[C@@H](NC(=O)[C@H](Cc1ccccc1)NC(=O)[C@@H](NC(=O)CNC(=O)[C@H](CCC(=O)O)NC(=O)[C@H](C)NC(=O)[C@@H](N)Cc1cnc[nH]1)[C@@H](C)O)[C@@H](C)O)C(C)C)[C@@H](C)CC)C(C)C)C(=O)NCC(=O)N[C@@H](Cc1c[nH]c2ccccc12)C(=O)N[C@@H](CCCC)C(=O)N(C)[C@H](CC(=O)O)C(=O)N(C)[C@@H](Cc1ccccc1)C(N)=O | 5510 | Non-Toxic | Non-Toxic | Non-Toxic | Active | Active | Dde | 341 | Active | Non-Toxic | Active | Active | Active | Non-Toxic | Active | Active | 27.3 | > 100 | 19.2 | Active | inhibition in vivo at 0.025 µmol/kg (Mus musculus [21]): 17.9%; Activity (Mus musculus [22]): Active; Activity [23]: Non-Toxic; Activity [24]: Non-Toxic; Activity [25]: Non-Toxic; Activity (Mus musculus [26]): Active; Activity [27]: Non-Toxic; half-life [28]: 9.2 h; Activity (Mus musculus [29]): Active; Activity (BRIN-BD11): Dde; MRT [30]: 14.7 h; inhibition in vivo at 0.01 µmol/kg (Mus musculus [31]): 14.5%; Activity [32]: Toxic
CCCC[C@H](NC(=O)[C@H](Cc1ccc(CS(=O)(=O)O)cc1)NC(=O)[C@H](CC(=O)O)NC(=O)COCCOCCNC(=O)COCCOCCNC(=O)[C@H](CCCCN)NC(=O)CNC(=O)[C@H](CCCCN)NC(=O)[C@@H](NC(=O)[C@H](CC(C)C)NC(=O)[C@H](Cc1c[nH]c2ccccc12)NC(=O)[C@H](CCC(=O)O)NC(=O)[C@@H](NC(=O)[C@H](Cc1ccccc1)NC(=O)[C@H](CCC(=O)O)NC(=O)[C@H](CCCCNC(=O)COCCOCCNC(=O)COCCOCCNC(=O)CC[C@H](NC(=O)CCCCCCCCCCCCCCCCC(=O)O)C(=O)O)NC(=O)[C@H](C)NC(=O)[C@H](C)NC(=O)[C@H](CCC(=O)O)NC(=O)[C@H](CCC(=O)O)NC(=O)[C@H](CCC(=O)O)NC(=O)[C@H](CC(C)C)NC(=O)[C@@H](NC(=O)[C@H](CCC(=O)O)NC(=O)[C@@H](NC(=O)[C@@H](NC(=O)[C@H](CC(=O)O)NC(=O)[C@H](CC(N)=O)NC(=O)[C@@H](NC(=O)[C@H](Cc1ccc(O)cc1)NC(=O)[C@@H](NC(=O)CNC(=O)[C@H](CCC(=O)O)NC(=O)C(C)(C)NC(=O)[C@@H](N)Cc1cnc[nH]1)[C@@H](C)O)[C@@H](C)O)C(C)C)[C@@H](C)O)[C@@H](C)O)[C@@H](C)CC)[C@@H](C)CC)C(=O)NCC(=O)N[C@@H](Cc1c[nH]c2ccccc12)C(=O)N[C@@H](CCCC)C(=O)N(C)[C@H](CC(=O)O)C(=O)N(C)[C@@H](Cc1ccccc1)C(N)=O | 15200 | Non-Toxic | Non-Toxic | Non-Toxic | Active | Active | Dde | 461 | Active | Non-Toxic | Active | Active | Active | Non-Toxic | Active | Active | 29.8 | > 100 | 21.4 | Active | inhibition in vivo at 0.025 µmol/kg (Mus musculus [21]): 21.2%; Activity (Mus musculus [22]): Active; Activity [23]: Non-Toxic; Activity [24]: Non-Toxic; Activity [25]: Non-Toxic; Activity (Mus musculus [26]): Active; Activity [27]: Non-Toxic; half-life [28]: 16.8 h; Activity (Mus musculus [29]): Active; Activity (BRIN-BD11): Dde; MRT [30]: 25.9 h; inhibition in vivo at 0.01 µmol/kg (Mus musculus [31]): 16.2%; Activity [32]: Toxic
